ChEMBL document CHEMBL3044530, “A simple synthesis of trans-3,4,5-trimethoxycinnamamides and evaluation of their biologic activity” (2013)
Activity calls are given as the source filed them. The calls are words filed in the database; no cut-off is given here.

Key:
Format in all cases: functional
Mus musculus = test: Antinarcotic activity in morphine-dependent C57BL/6 Mus musculus (mouse) assessed as decrease in naloxane-induced jumping frquency at 20 mg/kg, ip administered QD at 30 min prior to morphine-injection for 7 days followed by naloxane-challenge at 6 hr after last morphine-injection relative to control; parameters: scale not given: the % may be the effect or the level left
[1] = system: Radical scavenging activity; test: Antioxidant activity assessed as DPPH radical scavenging activity at 1 mM after 25 min by spectrophotometric analysis
Cortical neurone = test: Neuroprotective activity in ICR Mus musculus (mouse) cortical neurons assessed as protection against glutamate-induced toxicity at 5 to 20 uM after 24 hr by LDH assay

Row | SMILES | Activity (Mus musculus; route intraperitoneal) | Activity [1] | Activity (Cortical neurone) | Activity (Mus musculus)
1 | COc1cc(/C=C/C(=O)N2CCN(C(=O)/C=C/c3cc(OC)c(OC)c(OC)c3)CC2)cc(OC)c1OC | 80% |  |  | 
2 | COc1cc(/C=C/C(=O)N2CCOCC2)cc(OC)c1OC | 80% | > 20% |  | 
3 | COc1cc(/C=C/C(=O)NCCCN2CCCC2=O)cc(OC)c1OC | 80% | > 20% |  | 
4 | COc1cc(/C=C/C(=O)NCCO)cc(OC)c1OC | 80% | > 20% | Active | 
5 | COc1cc(/C=C/C(=O)O)cc(OC)c1OC |  |  |  | Active
6 | COc1cc(/C=C/C(=O)N2CCN(C(=O)c3ccccc3)CC2)cc(OC)c1OC | 80% | > 20% | Active | 
7 | COc1cc(/C=C/C(=O)N2CCSCC2)cc(OC)c1OC | 80% | > 20% | Active | 
